This is an account of results in paper PMC10149367, “The ferroptosis inducing compounds RSL3 and ML162 are not direct inhibitors of GPX4 but of TXNRD1” (Redox Biology, 2023).

In data set [1] the target is T1, GPX1 (Homo sapiens, UniProt P07203).
T1 construct: made in house
T1 sequence (P07203 1-203): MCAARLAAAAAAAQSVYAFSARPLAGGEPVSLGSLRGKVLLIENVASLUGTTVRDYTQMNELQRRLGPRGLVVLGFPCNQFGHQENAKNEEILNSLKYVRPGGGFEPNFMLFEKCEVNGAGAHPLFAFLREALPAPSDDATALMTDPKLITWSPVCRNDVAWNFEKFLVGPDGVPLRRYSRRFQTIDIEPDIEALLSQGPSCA
The data set can be described thus: GPX1 activity assay, pure enzyme (NADPH consumption, cumene hydroperoxide). Type of data set: biochemical. As to conditions: for IC50: recombinant GPX1, 30 min preincubation, read-out: IC50 GPX1 inhibition. How it is done:
(§1) Recombinant human proteins—Recombinant human selenoprotein GPX and TXNRD isoenzymes as well as recombinant human GR were cloned, expressed, and purified as described previously [[26], [27], [28]].
(§2) Biochemical assays—GPX assays were run as previously described [[26], [27], [28]] in a clear medium-binding 96-well SpectraPlates (PerkinElmer). Briefly, 198 μL of 10 nM GPX1 or 200 nM GPX4 were incubated with 2 μL compounds or DMSO in TES buffer (50 mM Tris-HCl, 2 mM EDTA (pH 7.5), 150 mM NaCl) with BSA at room temperature for 30 min. Then, 40 μL of master mix (100 nM GR, 1 mM GSH, 0.5 mM NADPH in TES buffer) was added. To start the reaction, 10 μL of Cumene hydroperoxide ([0.5 mM] in 50% EtOH) was then added. Absorbance at 340 nm was measured using a Tecan Infinite® M Nano microplate reader every 20 s for 30 min. Four replicates were run, unless otherwise stated.

Data set [2] deals with malondialdehyde (MDA) and Ptgs2 mRNA levels. Details: method as in PMID 32732975. Particulars: hemochromatosis mouse model; reversed by Ferrostatin-1; cited from earlier work.
Data set [3] concerns GPX4. Details: method as in PMID 33812801. As to conditions: cited from earlier work.
The target in data set [4] is T2, TXNRD1 (Homo sapiens, UniProt Q16881).
T2 construct: made in house
T2 sequence (Q16881 1-499 isoform Q16881-5): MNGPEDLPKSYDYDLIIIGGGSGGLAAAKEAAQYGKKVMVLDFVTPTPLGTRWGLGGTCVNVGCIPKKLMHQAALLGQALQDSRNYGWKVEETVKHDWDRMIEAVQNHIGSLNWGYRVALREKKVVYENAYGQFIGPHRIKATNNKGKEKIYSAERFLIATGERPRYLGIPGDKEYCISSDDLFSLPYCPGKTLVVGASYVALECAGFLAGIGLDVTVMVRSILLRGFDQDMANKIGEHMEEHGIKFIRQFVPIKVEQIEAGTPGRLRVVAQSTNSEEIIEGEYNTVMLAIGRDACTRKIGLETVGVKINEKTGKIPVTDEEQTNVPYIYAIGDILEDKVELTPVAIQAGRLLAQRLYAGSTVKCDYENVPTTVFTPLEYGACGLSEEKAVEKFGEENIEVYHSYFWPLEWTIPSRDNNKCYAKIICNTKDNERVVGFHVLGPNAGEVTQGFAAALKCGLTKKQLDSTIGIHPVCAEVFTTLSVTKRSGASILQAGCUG
The data set can be described thus: TXNRD1 activity assay, pure enzyme (Fig. 1A). Type of data set: biochemical. As for the experimental part:
as §1
(§3) TXNRD1 selenite and DTNB assays were run as previously described [[26], [27], [28]]. Dose-response curves and IC50s were generated using Excel and GraphPad Prism. Briefly, initial slopes of NADPH consumption were normalized to DMSO controls and IC50s were calculated using log(inhibitor) vs. response—Variable slope (four parameters).

Data set [5] deals with T3, GPX4 (Homo sapiens, UniProt P36969).
T3 construct: made in house
T3 sequence (P36969 1-170 isoform P36969-2): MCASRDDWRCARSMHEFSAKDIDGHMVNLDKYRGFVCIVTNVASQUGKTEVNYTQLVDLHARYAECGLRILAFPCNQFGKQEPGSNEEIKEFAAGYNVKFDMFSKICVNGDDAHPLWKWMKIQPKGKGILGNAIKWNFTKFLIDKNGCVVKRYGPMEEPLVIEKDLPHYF
Put plainly: nano differential scanning fluorimetry, GPX4. Type of data set: binding. Particulars: 100 μM compound; DMSO control 51.7 °C. How it is done:
Nano differential scanning fluorimetry—Real-time monitoring of fluorescence emission at 330 nm and 350 nm (excitation wavelength: 280 nm) and backscattering absorbance of GPX4 and TXNRD1 samples in the presence of compound was performed using a NanoTemper Prometheus NT.48 instrument. First, 0.25 mg/mL enzyme was incubated with 100 μM compound or DMSO for 15 min at room temperature. Standard capillaries were used, and temperature was increased from 25 to 95 °C with a ramp rate of 4.0 °C/min. Three biological replicates were carried out for each condition, and their means and standard deviations are depicted.
(Differential scanning fluorimetry follows unfolding on heating by fluorescence.)

Data set [6] addresses T4, TXNRD1 (Homo sapiens, UniProt Q16881).
T4 construct: RX1 probe that specifically reports upon TXNRD1 enzymatic activity in live cells; endogenous in cells; host or cells: A549
T4 sequence (Q16881 151-649 limits assumed): T2 sequence (Q16881 1-499 isoform Q16881-5)
Put plainly: Cellular TXNRD1 assay with RX1 probe in A549 cells. In kind it is cell-based.
Protocol: Cellular TXNRD1 assay—20,000 or 10,000 A549 cells (for 4 h or 12 h and 24 h compound incubation respectively) were seeded in 96-well plates (microplates, 96 well, F-bottom, black, clear bottom, ViewPlateTM-96 F TC, PerkinElmer), in a total volume of 100 μL full DMEM (supplemented with 10% FBS and 100 nM Na2SeO3). […] The cells were subsequently incubated for the respective mentioned time, washed once with full DMEM and fresh, full DMEM, containing 75 μM RX1 and 0.75% DMSO, was added and the first fluorescent measurement was conducted immediately (timepoint = 0) using a Tecan Infinite M200 plate reader (ex/em 355/520). To follow the kinetic activation of RX1, a fluorescent measurement was done every hour for 6 h. Between measurements, cells were stored at 37 °C and 5% CO2. As a control, cells treated with compounds, but not with RX1, just the respective DMSO content, were used for background fluorescent. To determine how the cells were viable throughout the RX1 assay, the control cells were used for a viability measurement, using CellTiter-Glo® Luminescent Cell Viability Assay, after the final fluorescent measurement. For final data analysis, raw data was processed using Microsoft Excel and GraphPad Prism. In brief, the slope of the activated RX1 fluorescence increase was in each case calculated and normalized, using the viability measurement of the control cells.

Data set [7] addresses T2, TXNRD1. The data set can be described thus: TXNRD1 orthogonal assays (selenite reduction, DTNB reduction; Extended Data Fig. 2). In kind it is biochemical. Particulars: selenite and DTNB assays. How it is done: as §3
Supplementary Data Extended Data Set
(Extended Data Fig. 2A, left panel). Measuring inhibition of TXNRD1 activity, as a complement to the analyses shown in the main text of this article, we also assessed this using two orthogonal approaches: 1. by the measurement of NADPH consumption coupled to direct selenite reduction of TXNRD1, either through the decrease in absorbance at 340 nm or decrease in its fluorescence, and 2. measuring TXNRD1-catalyzed DTNB reduction based upon quantification of TNB- anions absorbing at 412 nm as formed upon TXNRD1-catalyzed reduction of the disulfide in DTNB. Using these assays, we could confirm that the RSL3 inhibition of TXNRD1 was not an artifact due to specific assay conditions, with both RSL3 and ML162 showing complete inhibition of TXNRD1 at the higher end of the concentrations assessed here (2.8 ± 0.9% and 5.8 ± 0.9% remaining activity with just 5 µM of RSL3 and […]
ML162 (Extended Data Fig. 2A, middle and right panels, and 2B). […]
any inhibition of TXNRD1 in any of the assays. […]
µM, respectively (Extended Data Fig. 2B). Like with TRi-1 and TRi-2, inhibition of both TXNRD1 and TXNRD2 by RSL3 and ML162 was essentially dependent on pre-reduction of the enzyme by NADPH in order to yield potent and complete inactivation. Both compounds […]
ML162 in the absence of NADPH and subsequently assayed for activity; however, this could also be due to carry-over of the compounds to the NADPH dependent enzyme activity assay.
Because the reduction step with NADPH reduces a selenenylsulfide at the C-terminal active […]
of the selenolate at the C-terminal active site of the NADPH-reduced enzyme. That some […]
compounds might also bind some other additional site(s) in the enzyme. That notion is further strengthened by the fact that thermostability of TXNRD1 was also affected at higher concentrations of compounds when incubated with the enzyme in the absence of NADPH (see […]
dose-response curve fit to the average of n = 3 technical replicates. […]
well (middle left panel) and 1536-well format (not shown), as well as a DTNB assay (middle […]
TXNRD2 by RSL3 (left panel), ML162 (middle left panel), TRi-1 (middle right panel), and TRi-2 (right panel) are modulated by NADPH pre-treatment; Data are presented as mean ± s.d.; Four-parameter dose-response curve fit to the average of n = 3 technical replicates (n = 2

Data set [8] relates to A549 cells. The data set can be described thus: A549 viability in cellular TXNRD1 (RX1) experiments. As to conditions: A549, 4 h, Extended Data Fig. 3A.
Protocol: Cellular TXNRD1 assay—20,000 or 10,000 A549 cells (for 4 h or 12 h and 24 h compound incubation respectively) were seeded in 96-well plates (microplates, 96 well, F-bottom, black, clear bottom, ViewPlateTM-96 F TC, PerkinElmer), in a total volume of 100 μL full DMEM (supplemented with 10% FBS and 100 nM Na2SeO3). The cells were incubated for 16 h at 37 °C and 5% CO2, followed by media change and addition of indicated compounds at respective concentrations (0.1 μM–20 μM), including 0.6% DMSO. The cells were subsequently incubated for the respective mentioned time, washed once with full DMEM and fresh, full DMEM, containing 75 μM RX1 and 0.75% DMSO, was added and the first fluorescent measurement was conducted immediately (timepoint = 0) using a Tecan Infinite M200 plate reader (ex/em 355/520). To follow the kinetic activation of RX1, a fluorescent measurement was done every hour for 6 h. Between measurements, cells were stored at 37 °C and 5% CO2. As a control, cells treated with compounds, but not with RX1, just the respective DMSO content, were used for background fluorescent. To determine how the cells were viable throughout the RX1 assay, the control cells were used for a viability measurement, using CellTiter-Glo® Luminescent Cell Viability Assay, after the final fluorescent measurement. For final data analysis, raw data was processed using Microsoft Excel and GraphPad Prism. In brief, the slope of the activated RX1 fluorescence increase was in each case calculated and normalized, using the viability measurement of the control cells.
Extended Data Figure 3: A549 cytotoxicity in cellular TXNRD1 experiments following final
A) Cell viability following 4-hour incubation with
compounds; B) Viability following 12-hour incubation with compounds; C) Viability
following 24 -hour incubation with compounds. The cell viability in was in each case measured
using the Cell Quanti-BlueTM Cell Viability Assay Kit and the data are presented as mean ±
s.d. of n = 3 biological replicates, each containing n = 3 technical replicates.
Data set [9] addresses T3, GPX4. The data set can be described thus: GPX4 activity assay, pure enzyme (NADPH consumption, cumene hydroperoxide). Type of data set: biochemical. Particulars: for IC50: recombinant GPX4, 30 min preincubation, read-out: IC50 GPX4 inhibition. As for the experimental part: as §1, §2
The mark [10] stands for this setting: recombinant selenoprotein, pure enzyme system.

As to `CC(=O)OC[C@H]1O[C@@H]([S-])[C@H](OC(C)=O)[C@@H](OC(C)=O)[C@@H]1OC(C)=O.CCP(CC)CC.[Au+]` [Auranofin, auranofin], the IC50 in data set [1] was 4.7 µM; in data set [4] (recombinant TXNRD1, Fig. 1A assay conditions, read-out: IC50 TXNRD1 inhibition), approximately 19 µM. Also, in data set [2], the “Hepatic malondialdehyde (MDA) and Ptgs2 mRNA levels” value is “increase in hepatic malondialdehyde (MDA)”. For the same compound, in data set [3], the “Effect on GPX4 expression levels” value is listed as “decrease GPX4 expression levels”.
As for `Cc1onc(C(=O)N2CCN(C(c3ccc(Cl)cc3)c3ccc(Cl)cc3)CC2)c1[N+](=O)[O-]` [ML210], the “Tm of GPX4 (nanoDSF)” value in data set [5] amounted to 52.1 °C. Besides, the “Inhibition of GPX1” value in data set [1] (setting [10]) was “neither RSL3, ML162, nor ML210 inhibited either GPX isoenzyme”. For the same compound, the “Effect on cellular TXNRD1 activity (RX1)” value in [6] (A549, 20 μM) is given as “slightly suppressed TXNRD1 activity”; in [6] (A549, 0.5–1 μM), “tendency to increase the TXNRD1 activity”. In data set [6] (A549, 4 h incubation, RSL3 and ML162 at 1 μM or higher), the “Effect on cellular TXNRD1 activity (RX1) at 4 h” value is reported as “increase in TXNRD1 activity”. Also, the “Inhibition of TXNRD1 in any of the assays” value in [7] is listed as “did not show any inhibition of TXNRD1”. Further, the “Effect on cell viability at 4 h” value in data set [8] is listed as “no overt effects on viability”. Further, in data set [9] (setting [10]), the “Inhibition of GPX4” value is “neither RSL3, ML162, nor ML210 inhibited either GPX isoenzyme”.
With `OC[C@H]1O[C@H]([S-])[C@H](O)[C@@H](O)[C@@H]1O.[Au+]` [aurothioglucose], the “Specificity among GPX1, GPX4, GR and TXNRD1” value in data set [4] (pure enzyme systems, Fig. 1A lower panels) was “only showed TXNRD1 inhibition”.
For the compound `O=C(O)CC(S)C(=O)O` (centres unmarked) [mercaptosuccinic acid], the IC50 in data set [1] and in data set [9] was less than 10 µM in each case.
As for `[Cl][Hg][Cl]` [mercuric chloride], the IC50 in [1] and in data set [9] was less than 10 µM each time.

By IC50 is commonly meant the concentration that inhibits the measured activity by half.
